Experiment [1] deals with influenza A virus (PR8 strain). The format is in vivo. As to conditions: 0.5 MTD in 10 ml buffered saline with virus, 1 hour at 37°C.
Experiment [2] concerns Escherichia coli 100. Briefly: Antibacterial activity, minimum inhibitory concentration. The conditions noted are these: Escherichia coli, 100, 18 h, read-out: minimum inhibitory concentration, B. coli.
Description: (§1) The antibacterial activity of some of the 3H-1,5-benzodiazepines having the general formula I was tested on the following microorganisms:
(§2) Escherichia coli 100, Bacillus subtilis ATCC 9466, Micrococcus pyogenes SG-511, grown in Difco nutritive gelatin; Streptococcus pyogenes A 88 grown in Difco "Brain heart infusion agar" gelatin with 5 percent difibrinated Guinea pig blood.
(§3) The results were read after 18 hours incubation at 35°-37°C.
Experiment [3] deals with Bacillus subtilis ATCC 9466. Described as above. The conditions noted are these: ATCC9466, 18 h, read-out: minimum inhibitory concentration, B. subtilis.
Description: as §1, §2, §3
Experiment [4] has as its system Streptococcus pyogenes A 88. The description is as above. As to conditions: A88, 18 h, read-out: minimum inhibitory concentration, S. pyogenes.
Description: as §1, §2, §3
For experiment [5], the system named is Micrococcus pyogenes SG-511. The description is as above. As to conditions: Staphylococcus aureus, SG511, 18 h, read-out: minimum inhibitory concentration, M. pyogenes.
Description: as §1, §2, §3

Converted amounts (≈) assume the structure as drawn. Where a name gives a salt, the structure may show the parent alone.

With `C[N+]1(CCSC2=Nc3ccccc3N=C(c3ccc(Sc4ccccc4)cc3)C2)CCCCC1` [Compound 48, 2,beta,N-piperidinoethylthio-4,p-phenylthiophenyl-3H-1,5-benzodiazepine iodomethylate], the “APR8: difference between logarithms of EID95 of controls and of treated eggs” value (“APR8: difference between logarithms” for short) in experiment [1] was above 4. The MIC stood at 80 µg/mL in experiment [2] and 10 µg/mL in experiment [3].

Regarding `C[N+]1(CCSC2=Nc3ccccc3N=C(c3ccc(Sc4ccccc4)cc3)C2)CCOCC1` [Compound 50, 2,beta,N-morpholinoethylthio-4,p-phenylthiophenyl-3H-1,5-benzodiazepine iodomethylate], the “APR8: difference between logarithms” value in experiment [1] is listed as 2. Also, the MIC in experiment [2] worked out at 160 µg/mL; in experiment [3], 10 µg/mL.

Turning to `CC[N+](CC)(CCSC1=Nc2ccccc2N=C(c2ccc(Sc3ccccc3)cc2)C1)Cc1ccccc1` [Compound 31, 2,beta,N-diethylaminoethylthio-4,p-phenylthio-phenyl-3H-1,5-benzodiazepine bromobenzylate], the “APR8: difference between logarithms” value in experiment [1] was above 3. In experiment [3], the MIC was found to be 10 µg/mL.

Take `C[N+]1(C)CCN(CCSC2=Nc3ccccc3N=C(c3ccc(Sc4ccccc4)cc3)C2)CC1` [Compound 35, 2,beta,N(N'-methyl)piperazinoethylthio-4,p-phenylthiophenyl-3H-1,5-benzodiazepine monoiodomethylate]: in experiment [1], the “APR8: difference between logarithms” value worked out at 2. Moreover, in experiment [3], the MIC is 10 µg/mL.

Consider `CCN(CC)CCSC1=Nc2ccccc2N=C(c2ccc(C)cc2)C1` [Compound 66], for which the “APR8: difference between logarithms” value in experiment [1] is recorded as 1. Also, the MIC in experiment [4] was found to be 80 µg/mL (≈ 219 µM); in experiment [3] it was 40 µg/mL (≈ 109 µM).

Turning to `CCN(CC)CCCSC1=Nc2ccccc2N=C(c2ccc(Sc3ccccc3)cc2)C1` [Compound 39, 2,gamma,N-diethylaminopropylthio-4,p-phenylthiophenyl-3H-1,5-benzodiazepinecitrate], the “APR8: difference between logarithms” value in experiment [1] is 3. Moreover, the MIC in experiment [3] is 10 µg/mL (≈ 21.1 µM).

Consider `C[N+](C)(C)CCCSC1=Nc2ccccc2N=C(c2ccc(Sc3ccccc3)cc2)C1` [Compound 42, 2,gamma,N-dimethylaminopropylthio-4,p-phenylthiophenyl-3H-1,5-benzodiazepine iodomethylate], for which the “APR8: difference between logarithms” value in experiment [1] turned out to be 3. Moreover, the MIC was 80 µg/mL in experiment [2] and 40 µg/mL in experiment [3].

For `C[N+]1(CCSC2=Nc3ccccc3N=C(c3ccc(Sc4ccccc4)cc3)C2)CCCC1` [Compound 44, 2, beta,N-pyrrolidinoethylthio-4,p-phenylthiophenyl-3H-1,5-benzodiazepine iodomethylate], the “APR8: difference between logarithms” value in experiment [1] worked out at 2. The MIC in experiment [2] amounted to 160 µg/mL; in experiment [3] it was 40 µg/mL.

For the molecule `CC[N+](C)(CC)CCSC1=Nc2ccccc2N=C(c2ccc(Sc3ccccc3)cc2)C1` [Compound 30, 2,beta,N-diethylaminoethylthio-4,p-phenylthio-phenyl-3H-1,5-benzodiazepine iodomethylate], the “APR8: difference between logarithms” value in experiment [1] stood at 1. For the same molecule, in experiment [3], the MIC worked out at 10 µg/mL.

In the case of `C[N+]1(CCCSC2=Nc3ccccc3N=C(c3ccc(Sc4ccccc4)cc3)C2)CCCC1` [Compound 38, 2,gamma,N-pyrrolidinopropylthio-4,p-phenylthiophenyl-3H-1,5-benzodiazepine iodomethylate], the MIC in experiment [5] was 2.5 µg/mL; in experiment [2], 160 µg/mL; in experiment [4] it was 10 µg/mL; in experiment [3], 10 µg/mL. For the same molecule, the “APR8: difference between logarithms” value in experiment [1] is on record as 3.

Regarding `CN(C)CCCSC1=Nc2ccccc2N=C(c2ccc(Sc3ccccc3)cc2)C1` [Compound 41, 2,gamma,N-dimethylaminopropylthio-4,p-phenylthiophenyl-3H-1,5-benzodiazepine.HCl], the “APR8: difference between logarithms” value in experiment [1] is recorded as above 3. For the same molecule, the results for the MIC in experiment [4] and in experiment [3] were 1.25 µg/mL and 10 µg/mL, respectively.

`CN1CCN(CCSC2=Nc3ccccc3N=C(c3ccc(Sc4ccccc4)cc3)C2)CC1` [Compound 34, 2,beta,N(N'-methyl)piperazinoethylthio-4,p-phenylthiophenyl-3H-1,5-benzodiazepine citrate]: the “APR8: difference between logarithms” value in experiment [1] is above 3. The MIC in experiment [3] was determined as 40 µg/mL.

On to `CC[N+](C)(CC)CCCSC1=Nc2ccccc2N=C(c2ccc(Sc3ccccc3)cc2)C1` [Compound 40, 2,gamma,N-diethylaminopropylthio-4,p-phenylthiophenyl-3H-1,5-benzodiazepineiodomethylate], for which, in experiment [1], the “APR8: difference between logarithms” value came to 1. Moreover, the MIC in experiment [2], in experiment [4] and in experiment [3] was 5 µg/mL throughout.

`C[N+](C)(C)CCSC1=Nc2ccccc2N=C(c2ccc(Sc3ccccc3)cc2)C1` [Compound 46, 2,beta,N-dimethylaminoethylthio-4,p-phenylthiophenyl-3H-1,5-benzodiazepine iodomethylate]: the “APR8: difference between logarithms” value in experiment [1] is 2. For the same molecule, the MIC was 160 µg/mL in experiment [2] and 20 µg/mL in experiment [3].

The record behind these values is patent publication US3933793A, “Therapeutically active 2-aminoalkylthio-3H-1.5-benzodiazepines and process for preparing them” (Recordati S.A. Chemical and Pharmaceutical Company, priority 1971, dated 1976).
